Read-outs that look alike come from different tables or passages of the source.
Columns and labels:
[1] = at 25° C.; cited from earlier work
[2] = Source text: Accordingly, when looking at a particular acid, the percent of ionization of that acid can be determined by the following formula: […]
[3] = cited from earlier work

O=C[C@H](O)[C@@H](O)[C@H](O)[C@H](O)C(=O)O [Glucoronic, glucuronic acid]
pKa [1]: 3.28

O=C(O)C(O)c1ccccc1 (centres unmarked) [Mandelic, mandelic acid]
pKa [1]: 3.85

O=C(O)c1ccccc1O [Salicylic, salicylic acid]
percent ionized ([2]; in water, pH 2.2): approximately 9%
pH−pKa value ([2]; pH 2.2): −0.77
pH−pKa value ([2]; pH 5): 2.03
percent ionized ([2]; pH raised to 5): approximately 99%
normal pH in water [3]: 2.2

NC(N)=O [Urea]
pKa [1]: 0.10
